Experiments:
CLK2 enzyme = target: T1, CLK2 enzyme (Homo sapiens, UniProt P49760); assay: Measurement of CLK2 inhibitory activity (LANCE time-resolved fluorescence, ULight-labeled MBP peptide); type: biochemical; details: compound 1 μM; for inhibition at 1 µM: ATP 1 mM, read-out: CLK2 activity inhibition ratio at compound concentration of 1 μM (ATP 1 mM)
T1 construct: purchased Thermo Fisher Scientific
Protocol: A test compound dissolved in DMSO was added to a reaction solution (50 mM HEPES (pH: 7.5), 10 mM MgCl2, 1 mM EGTA, 2 mM DTT, 0.01% Tween 20, 0.01% BSA) containing a CLK2 enzyme (Thermo Fisher Scientific) and an ULight-labeled MBP peptide (PerkinElmer), and the mixture was then reacted at room temperature for 10 minutes. An ATP solution was added to a final concentration of 1 mM to initiate an enzyme reaction, and the reaction was carried out at room temperature for 60 minutes. A europium-labeled anti-phosphorylated MBP antibody (PerkinElmer) and a LANCE Detection buffer (PerkinElmer) containing EDTA with a final concentration of 20 mM were added to stop the reaction, the mixture was left standing for 60 minutes, and the time-resolved fluorescence value (excitation 320 nm, and emission 615 nm and 665 nm) was measured by Envision (PerkinElmer). The inhibition ratio (%) of CLK2 by the test compound was calculated in accordance with the following expression. Inhibition ratio (%)=(1−(count of test compound−blank)÷(control−blank))×100
The count of the CLK2 enzyme reaction solution without addition of the compound was described as a control, and the count without addition of the compound and addition of the CLK2 enzyme was described as a blank. The concentration at which the inhibition ratio was 50% was defined as an IC50 value.

HCT116 cells = assay: Growth inhibitory activity using HCT116 cells (Cell Titer-Glo); type: cell-based, human; details: compound 1 μM, 3 days; for inhibition at 1 µM: Homo sapiens, HCT-116, 72 h, read-out: Cell growth inhibition ratio at compound concentration of 1 μM
Protocol: HCT 116 cells (ATCC) were seeded in a 384-well plate at a density of 6×10^2 cells/well, and cultured overnight in a cell culture medium McCoy's 5A (Thermo Fisher Scientific) containing 10% FBS (fetal bovine serum) and 1% penicillin/streptomycin. The dissolved test compound was added in the cell medium, and the cell medium was left standing in a CO2 incubator (37° C.) for 3 days. A Cell Titer-Glo solution (Promega Corporation) was added, the mixture was stirred at room temperature for 10 minutes, and the emission value was measured by Envision (PerkinElmer). The inhibition ratio (%) of HCT116 cell growth by the test compound was calculated in accordance with the following expression. Inhibition ratio (%)=(1−(count of test compound−blank)÷(control−blank))×100
The count of the HCT116 cell suspension without addition of the compound was described as a control, and the count without addition of the compound and addition of HCT116 cells was described as a blank. The concentration at which the inhibition ratio was 50% was defined as an IC50 value.

T1 sequence (P49760 whole entry): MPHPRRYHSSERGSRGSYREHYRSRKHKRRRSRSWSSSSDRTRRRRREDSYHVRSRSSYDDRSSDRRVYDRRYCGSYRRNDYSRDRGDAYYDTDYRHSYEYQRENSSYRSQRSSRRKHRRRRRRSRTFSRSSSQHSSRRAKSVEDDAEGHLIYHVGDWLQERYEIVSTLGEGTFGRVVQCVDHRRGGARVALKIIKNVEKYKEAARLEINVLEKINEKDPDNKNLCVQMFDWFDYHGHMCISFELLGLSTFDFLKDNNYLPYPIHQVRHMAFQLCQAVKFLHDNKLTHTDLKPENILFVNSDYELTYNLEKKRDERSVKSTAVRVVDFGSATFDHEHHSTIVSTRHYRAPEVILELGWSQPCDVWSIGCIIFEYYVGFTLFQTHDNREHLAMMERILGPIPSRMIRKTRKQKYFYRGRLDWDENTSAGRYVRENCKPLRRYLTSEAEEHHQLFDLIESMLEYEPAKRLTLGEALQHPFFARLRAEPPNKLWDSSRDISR

| SMILES | inhibition at 1 µM (CLK2 enzyme) [%] | inhibition at 1 µM (HCT116 cells) [%] | CLK2 activity inhibition ratio at compound concentration of 1 μM (ATP 1 mM) (CLK2 enzyme) [%] | Cell growth inhibition ratio at compound concentration of 1 μM (HCT116 cells) [%] |
| --- | --- | --- | --- | --- |
| COc1ncnn2ccc(-c3cnc4nc(C)n(Cc5nnc(C6(F)CC6)o5)c4c3)c12 [Example 283, 1-((5-(1-fluorocyclopropyl)-1,3,4-oxadiazol-2-yl)methyl)-6-(4-methoxypyrrolo[2,1-f][1,2,4]triazin-5-yl)-2-methyl-1H-imidazo[4,5-b]pyridine] | 100 | 96 |  |  |
| COc1ncnn2ccc(-c3cnc4nc(C)n(Cc5nnc(C(F)F)o5)c4c3)c12 [Example 242, 1-((5-(difluoromethyl)-1,3,4-oxadiazol-2-yl)methyl)-6-(4-methoxypyrrolo[2,1-f][1,2,4]triazin-5-yl)-2-methyl-1H-imidazo[4,5-b]pyridine] | 100 | 94 |  |  |
| COc1ncnn2ccc(-c3cnc4nc(CO)n(Cc5cc(F)cc(F)c5)c4c3)c12 [Example 176, (1-(3,5-difluorobenzyl)-6-(4-methoxypyrrolo[2,1-f][1,2,4]triazin-5-yl)-1H-imidazo[4,5-b]pyridin-2-yl)methanol] | 100 | 85 |  |  |
| COc1ncnn2ccc(-c3cnc4nc(C)n(Cc5cccc(F)c5)c4c3)c12 [Example 175, 1-(3-fluorobenzyl)-6-(4-methoxypyrrolo[2,1-f][1,2,4]triazin-5-yl)-2-methyl-1H-imidazo[4,5-b]pyridine] | 100 | 91 |  |  |
| COc1ncnn2ccc(-c3cnc4nc(C)n(Cc5nc(C)no5)c4c3)c12 [Example 186, 6-(4-methoxypyrrolo[2,1-f][1,2,4]triazin-5-yl)-2-methyl-1-((3-methyl-1,2,4-oxadiazol-5-yl)methyl)-1H-imidazo[4,5-b]pyridine] | 99 | 96 |  |  |
| COc1nc2ncc(-n3ccc4ncc(C(C)O)nc43)cc2n1Cc1cccc(F)c1 (stereo not shown) [Example 160, 1-(5-(1-(3-fluorobenzyl)-2-methoxy-1H-imidazo[4,5-b]pyridin-6-yl)-5H-pyrrolo[2,3-b]pyrazin-3-yl)ethanol] |  |  | 100 | 98 |
| COc1ccnc2cnn(-c3cnc4nc(C)n(Cc5cccc(F)c5)c4c3)c12 [Example 105, 1-(1-(3-fluorobenzyl)-2-methyl-1H-imidazo[4,5-b]pyridin-6-yl)-7-methoxy-1H-pyrazolo[4,3-b]pyridine] | 100 | 96 |  |  |
| COc1cnc2ccn(-c3cnc4nc(C)n(Cc5cccc(F)c5)c4c3)c2n1 [Example 110, 1-(3-fluorobenzyl)-6-(3-methoxy-5H-pyrrolo[2,3-b]pyrazin-5-yl)-2-methyl-1H-imidazo[4,5-b]pyridine] | 100 | 92 |  |  |
| COc1nc2ncc(-n3ccc4ncc(C(C)O)nc43)cc2n1Cc1cccc(F)c1 (stereo not shown) [Example 161, 1-(5-(1-(3-fluorobenzyl)-2-methoxy-1H-imidazo[4,5-b]pyridin-6-yl)-5H-pyrrolo[2,3-b]pyrazin-3-yl)ethanol] | 100 | 97 |  |  |
| COc1ncnc2ccn(-c3cnc4nc(C)n(Cc5cc(F)cc(F)c5)c4c3)c12 [Example 7, 1-(3,5-difluorobenzyl)-6-(4-methoxy-5H-pyrrolo[3,2-d]pyrimidin-5-yl)-2-methyl-1H-imidazo[4,5-b]pyridine] | 100 | 92 |  |  |
| COc1ncnn2ccc(-c3cnc4nc(C)n(Cc5cc(C)no5)c4c3)c12 [Example 215] | 100 | 95 |  |  |
| COc1ncnn2ccc(-c3cnc4nc(C)n(Cc5noc(C)n5)c4c3)c12 [Example 214, 6-(4-methoxypyrrolo[2,1-f][1,2,4]triazin-5-yl)-2-methyl-1-((5-methyl-1,2,4-oxadiazol-3-yl)methyl)-1H-imidazo[4,5-b]pyridine] | 99 | 96 |  |  |
| COc1ncnn2ccc(-c3cnc4nc(C)n(Cc5nnc(C(C)(F)F)o5)c4c3)c12 [Example 274] | 100 | 93 |  |  |
| COc1ccnc2ccn(-c3cnc4nc(C)n(Cc5cccc(F)c5)c4c3)c12 [Example 102, 1-(3-fluorobenzyl)-6-(7-methoxy-1H-pyrrolo[3,2-b]pyridin-1-yl)-2-methyl-1H-imidazo[4,5-b]pyridine] | 100 | 95 |  |  |
| COc1ncnn2ccc(-c3cnc4nc(C)n(Cc5nnc(C(C)(C)F)o5)c4c3)c12 [Example 277, 1-((5-(2-fluoropropan-2-yl)-1,3,4-oxadiazol-2-yl)methyl)-6-(4-methoxypyrrolo[2,1-f][1,2,4]triazin-5-yl)-2-methyl-1H-imidazo[4,5-b]pyridine] | 100 | 95 |  |  |
| COc1ncnn2ccc(-c3cnc4nc(C)n(Cc5nnc(C)o5)c4c3)c12 [Example 193, 6-(4-methoxypyrrolo[2,1-f][1,2,4]triazin-5-yl)-2-methyl-1-((5-methyl-1,3,4-oxadiazol-2-yl)methyl)-1H-imidazo[4,5-b]pyridine] | 100 | 98 |  |  |
| COc1ncnn2ccc(-c3cnc4nc(C)n(Cc5nc(C)ns5)c4c3)c12 [Example 229, 6-(4-methoxypyrrolo[2,1-f][1,2,4]triazin-5-yl)-2-methyl-1-((3-methyl-1,2,4-thiadiazol-5-yl)methyl)-1H-imidazo[4,5-b]pyridine] | 100 | 97 |  |  |
